Laboratory results as given in patent publication US20250263370A1 (Tay Therapeutics Limited, priority 2022, published 2025).
Values joined by “and” are separate entries in the source; they are usually repeats but may differ in a detail not shown here. Identical values can stand only once.

Test system: collagen-induced arthritis
Assay: Collagen-induced arthritis (CIA) model in rats: body weight, paw volume, clinical scores, clinical observations; for Average detailed clinical score, left hind limb: key of the grades not given here; for Average detailed clinical score, right hind limb: key of the grades not given here; for Detailed Clinical Scores, left forelimb: key of the grades not given here; for Detailed Clinical Scores, left hind limb: key of the grades not given here; for Detailed Clinical Scores, right forelimb: key of the grades not given here; for Detailed Clinical Scores, right hind limb: key of the grades not given here; for Detailed Clinical Scores, score: key of the grades not given here; for Detailed Clinical Scores: left forelimb: key of the grades not given here; for Detailed Clinical Scores: left hind limb: key of the grades not given here; for Detailed Clinical Scores: right forelimb: key of the grades not given here; for Detailed Clinical Scores: right hind limb: key of the grades not given here; for Detailed Clinical Scores: score: key of the grades not given here; for Mean overall clinical score ± SD: key of the grades not given here; for overall clinical score: key of the grades not given here
Settings: for Average detailed clinical score, left forelimb / Average detailed clinical score, left hind limb / Average detailed clinical score, right forelimb / Average detailed clinical score, right hind limb / Average detailed clinical score, score / Mean overall clinical score ± SD / Detailed Clinical Scores, left forelimb / Detailed Clinical Scores, left hind limb / Detailed Clinical Scores, right forelimb / Detailed Clinical Scores, right hind limb / Detailed Clinical Scores, score / Overall clinical score / Detailed Clinical Scores: left forelimb / Detailed Clinical Scores: left hind limb / Detailed Clinical Scores: right forelimb / Detailed Clinical Scores: right hind limb / Detailed Clinical Scores: score: CIA rats; for Detailed Clinical Scores, left forelimb / Detailed Clinical Scores, left hind limb / Detailed Clinical Scores, right forelimb / Detailed Clinical Scores, right hind limb / Detailed Clinical Scores, score / Detailed Clinical Scores: left forelimb / Detailed Clinical Scores: left hind limb / Detailed Clinical Scores: right forelimb / Detailed Clinical Scores: right hind limb / Detailed Clinical Scores: score: individual animals ID 1-8; for Overall clinical score: individual animals #1-8; for Mean animal paw volume ± SD: group mean; for Animal paw volume percent change: individual animals

C[C@@H]1C[C@H]2[C@@H]3CCC4=CC(=O)C=C[C@]4(C)[C@@]3(F)[C@@H](O)C[C@]2(C)[C@@]1(O)C(=O)CO [dexamethasone]
Average detailed clinical score, left forelimb (Day 13): 0.00
Average detailed clinical score, left hind limb (Day 13): 0.00
Average detailed clinical score, right forelimb (Day 13): 0.00
Average detailed clinical score, right hind limb (Day 13): 0.00
Average detailed clinical score, score (Day 13): 0.00
Mean overall clinical score ± SD (Day 13): 0 ± 0
Detailed Clinical Scores, left forelimb (Day 13): 0
Detailed Clinical Scores, left hind limb (Day 13): 0
Detailed Clinical Scores, right forelimb (Day 13): 0
Detailed Clinical Scores, right hind limb (Day 13): 0
Detailed Clinical Scores, score (Day 13): 0
Overall clinical score (Day 13): 0
Mean animal paw volume ± SD (Day 14, L paw): 1.27 mL
Animal paw volume percent change (Day 14, L paw): −8.18% and −5.36% and 0.00% and −4.53% and −1.54% and −5.00% and −3.75% and −8.46%
Mean animal paw volume ± SD (Day 14, R paw): 1.26 mL
Animal paw volume percent change (Day 14, R paw): −5.62% and −2.70% and 0.00% and −8.92% and −2.33% and −7.72% and −5.17% and −8.06%
Average detailed clinical score, left forelimb (Day 14): 0.00
Average detailed clinical score, left hind limb (Day 14): 0.00
Average detailed clinical score, right forelimb (Day 14): 0.00
Average detailed clinical score, right hind limb (Day 14): 0.00
Average detailed clinical score, score (Day 14): 0.00
Mean overall clinical score ± SD (Day 14): 0 ± 0
Detailed Clinical Scores, left forelimb (Day 14): 0
Detailed Clinical Scores, left hind limb (Day 14): 0
Detailed Clinical Scores, right forelimb (Day 14): 0
Detailed Clinical Scores, right hind limb (Day 14): 0
Detailed Clinical Scores, score (Day 14): 0
Overall clinical score (Day 14): 0
Mean animal paw volume ± SD (Day 15, L paw): 1.26 mL
Animal paw volume percent change (Day 15, L paw): −8.92% and −7.28% and −2.17%
Mean animal paw volume ± SD (Day 15, R paw): 1.26 mL
Animal paw volume percent change (Day 15, R paw): −6.74% and −4.25% and −1.45%
Average detailed clinical score, left forelimb (Day 15): 0.00
Average detailed clinical score, left hind limb (Day 15): 0.00
Average detailed clinical score, right forelimb (Day 15): 0.00
Average detailed clinical score, right hind limb (Day 15): 0.00
Average detailed clinical score, score (Day 15): 0.00
Mean overall clinical score ± SD (Day 15): 0 ± 0
Detailed Clinical Scores: left forelimb (Day 15): 0
Detailed Clinical Scores: left hind limb (Day 15): 0
Detailed Clinical Scores: right forelimb (Day 15): 0
Detailed Clinical Scores: right hind limb (Day 15): 0
Detailed Clinical Scores: score (Day 15): 0
Overall clinical score (Day 15): 0
Mean animal paw volume ± SD (Day 18, L paw): 1.29 mL
Animal paw volume percent change (Day 18, L paw): −5.20% and −6.51% and 4.33%
Mean animal paw volume ± SD (Day 18, R paw): 1.29 mL
Animal paw volume percent change (Day 18, R paw): −4.49% and −4.63% and 4.36%
Average detailed clinical score, left forelimb (Day 18): 0.00
Average detailed clinical score, left hind limb (Day 18): 0.00
Average detailed clinical score, right forelimb (Day 18): 0.00
Average detailed clinical score, right hind limb (Day 18): 0.00
Average detailed clinical score, score (Day 18): 0.00
Mean overall clinical score ± SD (Day 18): 0 ± 0
Detailed Clinical Scores: left forelimb (Day 18): 0
Detailed Clinical Scores: left hind limb (Day 18): 0
Detailed Clinical Scores: right forelimb (Day 18): 0
Detailed Clinical Scores: right hind limb (Day 18): 0
Detailed Clinical Scores: score (Day 18): 0
Overall clinical score (Day 18): 0
Mean animal paw volume ± SD (Day 19, L paw): 1.29 mL
Animal paw volume percent change (Day 19, L paw): −5.20% and −6.90%
Mean animal paw volume ± SD (Day 19, R paw): 1.28 mL
Animal paw volume percent change (Day 19, R paw): −5.24% and −6.18%
Average detailed clinical score, left forelimb (Day 19): 0.00
Average detailed clinical score, left hind limb (Day 19): 0.00
Average detailed clinical score, right forelimb (Day 19): 0.00
Average detailed clinical score, right hind limb (Day 19): 0.00
Average detailed clinical score, score (Day 19): 0.00
Mean overall clinical score ± SD (Day 19): 0 ± 0
Detailed Clinical Scores: left forelimb (Day 19): 0
Detailed Clinical Scores: left hind limb (Day 19): 0
Detailed Clinical Scores: right forelimb (Day 19): 0
Detailed Clinical Scores: right hind limb (Day 19): 0
Detailed Clinical Scores: score (Day 19): 0
Overall clinical score (Day 19): 0
Mean animal paw volume ± SD (Day 21, L paw): 1.28 mL
Animal paw volume percent change (Day 21, L paw): −6.32% and −6.90%
Mean animal paw volume ± SD (Day 21, R paw): 1.29 mL
Animal paw volume percent change (Day 21, R paw): −5.99% and −6.18%
Average detailed clinical score, left forelimb (Day 21): 0.00
Average detailed clinical score, left hind limb (Day 21): 0.00
Average detailed clinical score, right forelimb (Day 21): 0.00
Average detailed clinical score, right hind limb (Day 21): 0.00
Average detailed clinical score, score (Day 21): 0.00
Mean overall clinical score ± SD (Day 21): 0 ± 0
Detailed Clinical Scores: left forelimb (Day 21): 0
Detailed Clinical Scores: left hind limb (Day 21): 0
Detailed Clinical Scores: right forelimb (Day 21): 0
Detailed Clinical Scores: right hind limb (Day 21): 0
Detailed Clinical Scores: score (Day 21): 0
Overall clinical score (Day 21): 0
